Each structure is given as a SMILES string.

From patent US12551562B2, “Methods and compositions for irreversible enzyme inhibition” (TRITERPENOID THERAPEUTICS, INC., priority 2019, dated 2026) come the findings set out here.

The target of one experiment is T1, His-GSTP (Homo sapiens, UniProt P09211).
T1 construct: made in house; host or cells: E. coli
Briefly: Modification of His-GSTP by triterpenoids, LC-MS/MS of tryptic digests. Type of experiment: binding. As to the method:
His-GSTP was expressed in E. coli as described previously. Purified His-GSTP captured on nickel beads was incubated with a range of concentrations of CDDO-Im (50 nM-10 μM) in phosphate buffer, pH 7.4 for 16 h. CDDO-Me (0.5 mM) was used as a positive control. The beads were then washed 5 times with 1000 μL phosphate buffer. The protein was subjected to on-bead tryptic digestion. In brief, a suspension beads in 30 μL of 50 mM ammonium bicarbonate buffer was incubated with 20 ng of trypsin for 16 h at 37° C. and the digest was analyzed by LC-MS/MS.
(§1) The tryptic peptides were analyzed by a Triple TOF 5600 mass spectrometer (Sciex). Samples were reconstituted in 50 μL 0.1% formic acid (FA) and 2 μL of samples were delivered into the instrument using an Eksigent Nano-LC system mounted with a nanoACQUITY UPLC Symmetry C18 Trap Column and an analytical BEH C18 nanoACQUITY Column (Waters, MA, USA). A NanoSpray III source was fitted with a 10 μm inner diameter PicoTip emitter (New Objective). Samples were loaded in 0.1% formic acid onto the trap, which was then washed with 2% ACN/0.1% FA for 10 min at 2 μL/min before switching in-line with the analytical column. A gradient of 2-50% (v/v) ACN/0.1% (v/v) FA over 90 min was applied to the column at a flow rate of 300 nL/min. Spectra were acquired automatically in positive ion mode using information-dependent acquisition, using mass ranges of 400-1600 amu in MS and 100-1400 amu in MS/MS. Up to 25 MS/MS spectra were acquired per cycle (approximately 10 Hz) using a threshold of 100 counts per s, with dynamic exclusion for 12 s and rolling collision energy. Sequence coverage was determined using ProteinPilot software, v4.0 and the most recent version of the SwissProt database.

In a further experiment the target is T2, HSA (Homo sapiens, UniProt P02768).
T2 construct: contains 585 amino acids (corresponding to 25-609 of P02768); purchased Sigma-Aldrich
T2 sequence (P02768 25-609): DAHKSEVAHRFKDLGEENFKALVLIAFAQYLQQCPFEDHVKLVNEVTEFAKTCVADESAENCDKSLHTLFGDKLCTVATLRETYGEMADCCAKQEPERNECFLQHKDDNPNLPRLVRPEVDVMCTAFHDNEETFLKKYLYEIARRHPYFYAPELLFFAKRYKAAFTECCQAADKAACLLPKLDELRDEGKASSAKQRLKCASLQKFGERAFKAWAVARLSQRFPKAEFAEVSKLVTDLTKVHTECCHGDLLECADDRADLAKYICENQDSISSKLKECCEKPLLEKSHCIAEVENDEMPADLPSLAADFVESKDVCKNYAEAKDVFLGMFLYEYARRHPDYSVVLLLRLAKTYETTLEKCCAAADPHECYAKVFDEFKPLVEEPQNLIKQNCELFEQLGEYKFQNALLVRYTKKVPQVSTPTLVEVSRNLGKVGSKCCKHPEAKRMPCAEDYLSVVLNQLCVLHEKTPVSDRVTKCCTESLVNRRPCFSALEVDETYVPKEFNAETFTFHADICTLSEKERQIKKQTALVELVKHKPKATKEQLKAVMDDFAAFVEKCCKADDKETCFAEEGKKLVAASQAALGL
Kind of experiment: Modification of HSA by triterpenoids, LC-MS/MS of tryptic digests. Type of experiment: binding. The protocol:
Triterpenoids were dissolved in DMSO to make up 1 mM stock solutions, followed by dilutions in phosphate buffer (10 mM, pH 7.4) and incubated with recombinant HSA (0.6 mM, 50 μL) in sealed Eppendorf tubes at 37° C. for 16 h. The molar ratios of drug to protein were 0.00001:1, 0.0001:1, 0.001:1, 0.01:1, 0.1:1, and 1:1. Protein was precipitated twice with 9 volumes of ice-cold methanol to remove free drug, resuspended in 50 μL phosphate buffer and then reduced with 10 mM dithiothreitol (15 min) and alkylated with 55 mM iodoacetamide (15 min) at room temperature. The protein was precipitated with methanol once more and finally dissolved in 100 μL 50 mM ammonium hydrogencarbonate, and 165 μg […] of protein was digested with 1.6 μg trypsin overnight at 37° C.
To examine the time-dependent modification of HSA by triterpenoids, 10 μM triterpenoids was incubated with HSA (0.6 mM, 300 μL) at 37° C. Aliquots of 50 μL were removed after 10, 30, 60, and 180 minutes and processed for LC-MS/MS analysis.
(§2) The tryptic peptides were analyzed by a Triple TOF 5600 mass spectrometer (Sciex). […] Sequence coverage was determined using ProteinPilot software, v4.0 and the most recent version of the SwissProt database.

The target in another experiment is T3, recombinant Keap1 (Homo sapiens, UniProt Q14145).
T3 construct: made in house
T3 sequence (Q14145 whole entry): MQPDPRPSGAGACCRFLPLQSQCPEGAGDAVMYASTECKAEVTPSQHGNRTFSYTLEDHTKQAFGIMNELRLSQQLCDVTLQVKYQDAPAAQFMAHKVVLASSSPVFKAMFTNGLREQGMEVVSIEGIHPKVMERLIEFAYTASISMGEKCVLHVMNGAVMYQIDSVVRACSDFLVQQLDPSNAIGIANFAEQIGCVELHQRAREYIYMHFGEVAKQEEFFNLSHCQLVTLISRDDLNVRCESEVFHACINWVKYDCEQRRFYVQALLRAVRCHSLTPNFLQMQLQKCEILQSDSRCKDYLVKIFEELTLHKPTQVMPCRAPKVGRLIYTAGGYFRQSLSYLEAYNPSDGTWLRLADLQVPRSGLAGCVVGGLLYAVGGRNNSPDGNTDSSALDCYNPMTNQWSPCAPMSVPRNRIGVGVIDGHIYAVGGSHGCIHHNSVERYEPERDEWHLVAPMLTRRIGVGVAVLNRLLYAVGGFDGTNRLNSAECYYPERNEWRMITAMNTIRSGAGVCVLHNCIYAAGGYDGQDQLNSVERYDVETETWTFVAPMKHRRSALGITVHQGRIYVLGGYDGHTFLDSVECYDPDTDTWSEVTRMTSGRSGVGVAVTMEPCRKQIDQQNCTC
Briefly: Modification of Keap1 by triterpenoids, LC-MS/MS of tryptic digests. Type of experiment: binding. The settings on record: 100 μM, 16 h. The protocol:
Triterpenoids were dissolved in DMSO to make up 1 mM stock solutions, followed by dilutions in phosphate buffer (10 mM, pH 7.4) and incubated with recombinant Keap1 proteins produced in house at 37° C. for 16 h. The final concentration of triterpenoids was 100 μM. The mixture was then purified by 1D-gel electrophoresis using an established protocol, followed by in gel-digestion. The digests were further purified by C18-ziptiping and analyzed by LC-MS/MS.
as §1, with “Spectra were acquired automatically in positive ion mode using information-dependent acquisition, using mass ranges of 400-1600 amu in MS and 100-1400 amu in MS/MS. Up to 25 MS/MS spectra were acquired per cycle (approximately 10 Hz) using a threshold of 100 counts per s, with dynamic exclusion for 12 s and rolling collision energy.” left out

The target of a further experiment is T4, LONP protein (Homo sapiens, UniProt P36776).
T4 construct: Professor John Letterio (supplied; not a vendor)
T4 sequence (P36776 68-959): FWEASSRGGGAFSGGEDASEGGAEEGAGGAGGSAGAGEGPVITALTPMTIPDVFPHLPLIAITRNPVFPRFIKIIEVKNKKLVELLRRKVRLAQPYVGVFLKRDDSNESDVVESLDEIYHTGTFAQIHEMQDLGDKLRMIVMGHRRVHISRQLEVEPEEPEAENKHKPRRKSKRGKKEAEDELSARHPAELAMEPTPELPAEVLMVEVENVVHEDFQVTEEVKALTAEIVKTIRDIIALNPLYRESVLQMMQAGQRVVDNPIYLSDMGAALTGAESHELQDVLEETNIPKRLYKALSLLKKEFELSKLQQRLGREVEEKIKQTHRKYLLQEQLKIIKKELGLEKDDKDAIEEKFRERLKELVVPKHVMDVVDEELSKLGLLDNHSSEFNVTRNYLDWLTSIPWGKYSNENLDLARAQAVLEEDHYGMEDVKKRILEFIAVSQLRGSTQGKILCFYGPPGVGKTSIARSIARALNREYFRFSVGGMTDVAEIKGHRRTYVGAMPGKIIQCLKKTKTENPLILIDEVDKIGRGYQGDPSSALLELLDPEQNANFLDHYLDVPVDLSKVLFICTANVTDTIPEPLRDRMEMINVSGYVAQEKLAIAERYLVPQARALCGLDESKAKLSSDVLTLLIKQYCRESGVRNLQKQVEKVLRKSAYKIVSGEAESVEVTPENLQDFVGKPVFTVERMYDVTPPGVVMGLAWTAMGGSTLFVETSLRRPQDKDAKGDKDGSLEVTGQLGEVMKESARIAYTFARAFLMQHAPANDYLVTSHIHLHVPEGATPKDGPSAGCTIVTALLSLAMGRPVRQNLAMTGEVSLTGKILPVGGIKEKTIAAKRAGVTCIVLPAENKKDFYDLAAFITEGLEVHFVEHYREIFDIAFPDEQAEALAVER
Briefly: Modification of LONP by triterpenoids, LC-MS/MS of tryptic digests. Type of experiment: binding. The settings on record: 100 μM, 16 h; lysine (3), cysteine (3), tyrosine (2). As to the method:
The LONP protein (Professor John Letterio) was first purified by buffer exchange using spin filters (3K MWCO). 10 μg protein was then incubated with CDDO-2P-Im (100 μM) in phosphate buffer (10 mM, pH 7.4) at 37° C. for 16 h. The mixture was then purified by 1D-gel electrophoresis using an established protocol, followed by in gel-digestion. The digests were further purified by C18-ziptiping and analyzed by LC-MS/MS.
as §1, with “Spectra were acquired automatically in positive ion mode using information-dependent acquisition, using mass ranges of 400-1600 amu in MS and 100-1400 amu in MS/MS. Up to 25 MS/MS spectra were acquired per cycle (approximately 10 Hz) using a threshold of 100 counts per s, with dynamic exclusion for 12 s and rolling collision energy.” left out

The test system of experiment [1] is Epstein-Barr virus-transformed B-cell lines. Briefly: Modification of B cell intracellular proteins by triterpenoids, proteomics LC-MS/MS. Type of experiment: cell-based, human. The protocol:
Epstein-Barr virus-transformed B-cell lines were generated with previously described methods by incubating PBMC with supernatant from the Epstein-Barr virus-producing cell line B9-58. B cells were maintained in F1 medium at 37° C., 5% CO2. Cells were plated into an 8-well plate at a concentration of 1×10^6 cells/ml and treated with triterpenoids at different concentrations (0, 1, 10 μM) for 16 hours. 200 μL cells were then plated (1×10^5 cells/well) into a 96-well plate, [^3H]-thymidine (0.5 μCi/well) was then added and incubated for 16 hours. Cell was harvested and the proliferative responses were measured by [^3H]-thymidine incorporation. For the remaining cells, supernatants were removed for ELISA (TNFα, IL10, and IFNγ) and proteomics analysis. The cells were then washed in PBS and lysed with 2D lysis buffer (40 mM Tris base, 7M urea, 2M thiourea, 4% (w/v) CHAPS, and 1% DTT). Cell lysates were sonicated and centrifuged at 18000 rpm for 20 minutes at […]. Supernatants were collected and the protein concentrations were measured by BCA assay. Proteins were denatured and processed for mass spectrometric analysis.
as §2

T1 sequence (P09211 whole entry): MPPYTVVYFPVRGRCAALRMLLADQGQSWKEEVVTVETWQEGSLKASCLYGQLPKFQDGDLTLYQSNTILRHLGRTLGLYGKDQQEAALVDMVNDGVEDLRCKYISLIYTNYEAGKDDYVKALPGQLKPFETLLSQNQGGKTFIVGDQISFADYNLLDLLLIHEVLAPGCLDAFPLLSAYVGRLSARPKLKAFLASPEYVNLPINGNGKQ

Regarding `CC1(C)CC[C@]2(C(=O)n3ccnc3)CC[C@]3(C)[C@H](C(=O)C=C4[C@@]5(C)C=C(C#N)C(=O)C(C)(C)[C@@H]5CC[C@]43C)[C@@H]2C1` [CDDO-Im, 1-(2-cyano-3,12-dioxooleana-1,9(11)-dien-28-oyl) imidazole], the “covalent binding to GSTP, dependence on concentration” value on His-GSTP (16 hour incubation at 37° C.) was “concentration-dependent”. Further, the “lowest concentration at which adducts with GSTP were detectable” value on His-GSTP (phosphate buffer pH 7.4, 16 h, 50 nM-10 μM tested) was 50 nM. Besides, the “site of the simple Michael adduct (CDDO carboxylate, +491.5 amu) on GSTP” value on His-GSTP (tryptic digests of treated GSTP) was “only detected on Cys48”. The “modification of HSA, dependence on concentration and time” value at HSA (normalized ion counts of modified peptides) is “concentration- and time-dependent”.
Turning to `CC1(C)CC[C@]2(C(=O)n3cnc(-c4ccccn4)c3)CC[C@]3(C)[C@H](C(=O)C=C4[C@@]5(C)C=C(C#N)C(=O)C(C)(C)[C@@H]5CC[C@]43C)[C@@H]2C1` [CDDO-2P-Im, 1-[2-Cyano-3,12-dioxooleana-1,9(11)-dien-28-oyl]-4(-pyridin-2-yl)-1H-imidazole], the “covalent binding to GSTP, dependence on concentration” value on His-GSTP (16 hour incubation at 37° C.) was “bind to GSTP in a similar manner”. At His-GSTP (in comparison to CDDO-Im, 16 hour incubation at 37° C., FIG. 1C/1D), the “plateau of binding to GSTP” value is “binding does not plateau above 5 μM”. The “preferred binding site on GSTP” value on His-GSTP (increasing drug concentrations, 16 hour incubation at 37° C., FIG. 1D) was “Cys48”. The “number of CDDO-modified HSA peptides” value at HSA (500 μM, 16 h, lysine (9), arginine (2), serine (7), tyrosine (5)) is listed as 23. Besides, at recombinant Keap1, the “modification of Cys151 of Keap1” value was “not detected”. The “number of binding sites identified on Keap1” value on recombinant Keap1 (phosphate buffer pH 7.4) is recorded as 8. Further, the “number of modified LONP peptides” value at LONP protein was determined as 8. For the same compound, in experiment [1] (10 μM for 16 hours), the “number of modified B cell proteins identified” value is on record as 32. Further, the “modification of the 4 active cysteine residues of PPIA” value in experiment [1] (B cells treated with 10 μM for 16 hours) is given as “all modified”.
